molecular target: T1, Stearoyl-CoA desaturase (SCD) (Rattus norvegicus, UniProt P07308); assay: SCD assay in rat liver microsomes ([3H]stearoyl CoA desaturation, adapted from Talamo and Bloch); type: biochemical; conditions: rat liver microsomes 0.2 mg/ml final, 30 min preincubation, 45 min reaction, room temperature
T1 construct: The rat liver microsomes were collected according to the procedure described in Ozols (1990) Methods Enzm, 182:225; from tissue
T1 sequence (P07308 1-358): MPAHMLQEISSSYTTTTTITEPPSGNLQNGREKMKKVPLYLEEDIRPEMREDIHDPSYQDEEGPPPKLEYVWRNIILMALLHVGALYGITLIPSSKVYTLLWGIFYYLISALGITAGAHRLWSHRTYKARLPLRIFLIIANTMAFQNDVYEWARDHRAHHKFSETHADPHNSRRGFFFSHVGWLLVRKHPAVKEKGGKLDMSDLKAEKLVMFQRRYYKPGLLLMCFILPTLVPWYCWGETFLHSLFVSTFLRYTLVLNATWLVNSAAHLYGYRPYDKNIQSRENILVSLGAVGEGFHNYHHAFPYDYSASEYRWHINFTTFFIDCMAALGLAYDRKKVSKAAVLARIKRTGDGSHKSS
From the text: The identification of compounds of the invention as SCD inhibitors was readily accomplished using the SCD enzyme and microsomal assay procedure described in Talamo and Bloch (1969) Analytical Biochemistry 29:300-304.
The rat liver microsomes were collected according to the procedure described in Ozols (1990) Methods Enzm, 182:225.
Male Spraque Dawley Rats were placed on regimented fasting protocol for one week to stimulate SCD enzymatic activity. 48-hour periods were alternated between feeding and fasting to induce and down-regulate SCD activity with SCD activity being induced via carbohydrate rich diet prior to liver perfusion and collection.
The rats were anesthetized with Isoflurane inhalation anesthetic, the liver perfused with cold phosphate buffered saline (PBS), weighed, and chilled in cold homogenization buffer (250 mM sucrose, 10 mM Tris, 1 mM EDTA, pH 7.6).
The livers were finely minced and placed in homogenization tube. Homogenization buffer (40 mL) was added to the homogenization tube and the liver homogenized and centrifuged in a pre-chilled […] for 10 min at 4° C.
Following centrifugation, the supernatant was collected and the pellet removed and discarded. The supernatant was centrifuge at 10,000 G for 35 minutes. Following centrifugation, the supernatant was collect and the pellet discarded. The supernatant was then centrifuged in a pre-chilled 45-Ti rotor at 130,000 G (41,000 RPM) for 90 minutes at 4° C.
The supernatant was then aspirated off and the collected microsomal pellet washed in 25 mL of Glycerol PBS (1× PBS 7.4, 20% Glycerol) and resuspended in 4-5 volumes of Glycerol PBS.
The protein concentration of the microsomal preparation was determined by BCA assay (Pierce) and the microsomes were aliquoted and stored at −80° C.
Biobeads were ground to a smaller size in a mortar and pestle and resuspended in 3.6% TCA. The beads were then filtered through […] mesh.
SCD was determined in the desaturase assay buffer. This assay buffer contained 0.1 M Tris buffer, pH 7.2, 2 mM NADH, 4.8 mM ATP, 0.5 mM CoA, 4.8 mM MgCl2, and 0.1% BSA.
1 μl of each compound of Formula I was added to an assay plate by a low volume (0.5-10 μL) multichannel pipette. A DMSO control was also prepared. The microsomes were quickly thawed and added to assay buffer so that a concentration of 0.4 mg/ml was achieved (0.2 mg/ml assay final). 50 μl of the microsome suspension in assay buffer was then added into each well in the compound assay plate, the plate was covered, and the microsomes preincubated with the compounds for 30 minutes on the orbital shaker, 50-75rpm, at room temperature. […]

IC50 [µM]	Structure (SMILES)
6.2	O=C(O)c1ccc2nn(Cc3ccc(Cl)c(Cl)c3)c(=O)n2c1 [Compound 1, 2-(3,4-dichlorobenzyl)-3-oxo-2,3-dihydro-[1,2,4]triazolo[4,3-a]pyridine-6-carboxylic acid]
0.19	CCCCCCNC(=O)c1ccc2nn(Cc3ccc(Cl)c(Cl)c3)c(=O)n2c1 [Compound 2, 2-(3,4-dichlorobenzyl)-N-hexyl-3-oxo-2,3-dihydro-[1,2,4]triazolo[4,3-a]pyridine-6-carboxamide]
3.1	CC(C)(C)OC(=O)Nc1ccc2nn(Cc3ccc(Cl)c(Cl)c3)c(=O)n2c1 [Compound 4, tert-butyl 2-(3,4-dichlorobenzyl)-3-oxo-2,3-dihydro-[1,2,4]triazolo[4,3-a]pyridin-6-ylcarbamate]
0.16	O=C(NCCO)c1ccc2nn(Cc3ccc(Cl)c(Cl)c3)c(=O)n2c1 [Compound 3, 2-(3,4-dichlorobenzyl)-N-(2-hydroxyethyl)-3-oxo-2,3-dihydro-[1,2,4]triazolo[4,3-a]pyridine-6-carboxamide]
